Laboratory results from US20260007684A1, “AMIDE DERIVATIVES FOR INHIBITING NLRP3 AND USES THEREOF” (Ventus Therapeutics U.S., Inc., priority 2023, published 2026).

target: human NLRP3 (Homo sapiens (Human), UniProt Q96P20); test: Scintillation Proximity (SPA) NLRP3 Assay: displacement of 3H-MCC950; format: binding; details: SPA IC50, displacement of 3H-MCC950
Sequence (Q96P20 whole entry): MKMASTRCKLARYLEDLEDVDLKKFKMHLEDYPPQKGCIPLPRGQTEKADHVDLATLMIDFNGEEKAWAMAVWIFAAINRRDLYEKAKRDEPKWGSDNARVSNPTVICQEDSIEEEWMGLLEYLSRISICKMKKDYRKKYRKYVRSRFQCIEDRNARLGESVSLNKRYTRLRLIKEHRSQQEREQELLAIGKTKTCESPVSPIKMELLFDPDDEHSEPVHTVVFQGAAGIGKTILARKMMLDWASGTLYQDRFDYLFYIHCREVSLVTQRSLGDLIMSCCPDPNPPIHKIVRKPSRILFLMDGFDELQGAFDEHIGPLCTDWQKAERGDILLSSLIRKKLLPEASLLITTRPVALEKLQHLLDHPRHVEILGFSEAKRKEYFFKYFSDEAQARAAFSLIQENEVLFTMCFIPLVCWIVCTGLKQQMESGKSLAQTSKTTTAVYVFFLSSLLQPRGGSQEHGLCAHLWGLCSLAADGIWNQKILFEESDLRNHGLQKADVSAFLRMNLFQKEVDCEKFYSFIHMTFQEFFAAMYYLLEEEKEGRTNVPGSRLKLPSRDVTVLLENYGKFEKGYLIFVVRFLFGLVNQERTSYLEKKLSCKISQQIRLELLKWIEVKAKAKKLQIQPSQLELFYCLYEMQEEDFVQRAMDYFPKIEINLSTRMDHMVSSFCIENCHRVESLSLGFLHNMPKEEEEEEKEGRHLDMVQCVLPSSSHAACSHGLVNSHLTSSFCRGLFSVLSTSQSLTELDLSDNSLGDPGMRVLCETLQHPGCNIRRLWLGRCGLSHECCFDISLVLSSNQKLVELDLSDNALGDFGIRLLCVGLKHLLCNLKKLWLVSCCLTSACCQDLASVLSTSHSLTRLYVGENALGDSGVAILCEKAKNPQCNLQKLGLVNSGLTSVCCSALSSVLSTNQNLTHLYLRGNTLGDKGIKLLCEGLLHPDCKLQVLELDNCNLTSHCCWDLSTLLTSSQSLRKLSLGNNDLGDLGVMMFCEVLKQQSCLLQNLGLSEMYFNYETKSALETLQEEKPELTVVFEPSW

Q: `C[C@@H]1C[C@@H]2CC[C@H]([C@@H](NC(=O)C3(c4ccc(C(F)(F)F)cc4)CC3)C1)N2c1nnn[nH]1` [104F*, N-((1R,2S,4S,6S)-4-methyl-9-(1H-tetrazol-5-yl)-9-azabicyclo[4.2.1]nonan-2-yl)-1-(4-(trifluoromethyl)phenyl)cyclopropane-1-carboxamide] was tested. Which IC50 did it give?
A: Its IC50 is 10 to 50 µM.

same assay, conditions: displacement of 3H-MCC950; read-out: SPA IC50

Q: `C[C@H]1C[C@@H](NC(=O)C2(c3ccc(SC(F)F)cc3)CC2)[C@@H]2CC[C@H]1N2c1nnn[nH]1` [85C*, 1-(4-((difluoromethyl)thio)phenyl)-N-((1S,2R,4S,5R)-4-methyl-8-(1H-tetrazol-5-yl)-8-azabicyclo[3.2.1]octan-2-yl)cyclopropane-1-carboxamide] was tested. Which IC50 did it give?
A: Its IC50 is greater than 100 µM.

Q: How did the IC50 turn out when `C[C@@H]1CCN(c2nnn[nH]2)C[C@@H](NC(=O)C2(c3ccc(C(F)(F)F)c(F)c3)CC2)C1` (single isomer, unassigned) [66B*] was run?
A: Its IC50 is 1 to 10 µM.

Q: Which IC50 does the source give for `C[C@H]1CCN(c2nnn[nH]2)C[C@@H](NC(=O)C2(c3cc(F)c(Cl)cc3O)CC2)C1` (single isomer, unassigned) [29D*, 1-(4-chloro-5-fluoro-2-hydroxyphenyl)-N-(5-methyl-1-(1H-tetrazol-5-yl)azepan-3-yl)cyclopropane-1-carboxamide] here?
A: Its IC50 is 10 to 50 µM.

Q: Which IC50 does the source give for `C[C@@H]1CCN(c2nnn[nH]2)C[C@@H](NC(=O)C2(c3cnc(Cl)cc3O)CC2)C1` (single isomer, unassigned) [99B*] here?
A: Its IC50 is 1 to 10 µM.

Q: Which IC50 does the source give for `C[C@@H]1C[C@H](NC(=O)C2(c3ccc(SC(F)F)cc3)CC2)[C@H]2CC[C@@H]1N2c1nnn[nH]1` [85B*, 1-(4-((difluoromethyl)thio)phenyl)-N-((1R,2S,4R,5S)-4-methyl-8-(1H-tetrazol-5-yl)-8-azabicyclo[3.2.1]octan-2-yl)cyclopropane-1-carboxamide] here?
A: The IC50 was 10 to 50 µM.

Q: `C[C@@H]1CC[C@H](NC(=O)C2(c3ccc(Cl)cc3O)CC2)CN(c2nnn[nH]2)C1` (single isomer, unassigned) [90D*] was tested. Which IC50 did it give?
A: Its IC50 is 1 to 10 µM.

Q: How did the IC50 turn out when `C[C@H]1CCN(c2nnn[nH]2)C[C@H](NC(=O)C2(c3cnc(Cl)cc3O)CC2)C1` (single isomer, unassigned) [99C*] was run?
A: Its IC50 is 50 to 100 µM.

Q: How did the IC50 turn out when `C[C@@H]1CCN(c2nnn[nH]2)C[C@@H](NC(=O)C2(c3ccc(Cl)nc3O)CC2)C1` (single isomer, unassigned) [100B*] was run?
A: The IC50 was 10 to 50 µM.

Q: With `COc1cc(F)c(C2(C(=O)N[C@H]3C[C@H](C)[C@H]4CC[C@@H]3N4c3nnn[nH]3)CC2)c(F)c1` (single isomer, unassigned) [102D*] as the compound, how does the IC50 read?
A: The IC50 was 10 to 50 µM.

Q: With `C[C@H]1CCN(c2nnn[nH]2)C[C@@H](NC(=O)C2(c3ccc(OC(F)(F)F)cc3O)CC2)C1` (single isomer, unassigned) [62D*] as the compound, how does the IC50 read?
A: The IC50 was 1 to 10 µM.

Q: Which IC50 does the source give for `C[C@H]1CCN(c2nnn[nH]2)C[C@@H](NC(=O)C2(c3ccc(OC(F)F)cc3F)CC2)C1` (single isomer, unassigned) [3D*] here?
A: Its IC50 is 1 to 10 µM.

Q: With `C[C@H]1CCN(c2nnn[nH]2)C[C@@H](NC(=O)C2(c3ccc(C(F)(F)F)cc3)CC2)C1` (single isomer, unassigned) [61D*] as the compound, how does the IC50 read?
A: The IC50 was 10 to 50 µM.

Q: How did the IC50 turn out when `C[C@H]1CCN(c2nnn[nH]2)C[C@@H](NC(=O)C2(c3ccc(C(F)(F)F)c(OC(F)F)c3)CC2)C1` (single isomer, unassigned) [54D*] was run?
A: The IC50 was 10 to 50 µM.

Q: For `C[C@H]1CC[C@H](NC(=O)C2(c3ccc(Cl)cc3)CC2)CN(c2nnn[nH]2)C1` (single isomer, unassigned) [36B*, 1-(4-chlorophenyl)-N-(6-methyl-1-(1H-tetrazol-5-yl)azepan-3-yl)cyclopropane-1-carboxamide], which IC50 is on record?
A: The IC50 was 1 to 10 µM.

Q: With `C[C@H]1CCN(c2nnn[nH]2)C[C@H](NC(=O)C2(c3ccc(OC(F)(F)F)c(F)c3O)CC2)C1` (single isomer, unassigned) [28C*, 1-(3-fluoro-2-hydroxy-4-(trifluoromethoxy)phenyl)-N-(5-methyl-1-(1H-tetrazol-5-yl)azepan-3-yl)cyclopropane-1-carboxamide] as the compound, how does the IC50 read?
A: The IC50 was greater than 100 µM.

Q: With `C[C@H]1CCN(c2nnn[nH]2)C[C@@H](NC(=O)C2(c3ccc(C(F)(F)F)c(F)c3O)CC2)C1` (single isomer, unassigned) [31D*, 1-(3-fluoro-2-hydroxy-4-(trifluoromethyl)phenyl)-N-(5-methyl-1-(1H-tetrazol-5-yl)azepan-3-yl)cyclopropane-1-carboxamide] as the compound, how does the IC50 read?
A: Its IC50 is 1 to 10 µM.

Q: For `C[C@H]1CCN(c2nnn[nH]2)C[C@H](NC(=O)C2(c3ccc(OC(F)F)cc3O)CC2)C1` (single isomer, unassigned) [70C*], which IC50 is on record?
A: Its IC50 is 10 to 50 µM.

Q: For `C[C@H]1CCN(c2nnn[nH]2)C[C@@H](NC(=O)C2(c3ccc(C(F)(F)F)cc3O)CC2)C1` (single isomer, unassigned) [63D*], which IC50 is on record?
A: Its IC50 is less than 1 µM.

Q: For `C[C@@H]1C[C@H](NC(=O)C2(c3ccc(C4CC4(F)F)cc3)CC2)[C@H]2CC[C@@H]1N2c1nnn[nH]1` (single isomer, unassigned) [37B*], which IC50 is on record?
A: Its IC50 is 10 to 50 µM.

Q: `C[C@@H]1C[C@@H](NC(=O)C2(c3ccc(OC(F)F)cc3)CC2)[C@@H]2CC[C@H]1N2c1nnn[nH]1` (single isomer, unassigned) [35G*] was tested. Which IC50 did it give?
A: The IC50 was greater than 100 µM.

Q: For `C[C@H]1CCN(c2nnn[nH]2)C[C@@H](NC(=O)C2(c3ccc(Cl)nc3O)CC2)C1` (single isomer, unassigned) [100D*], which IC50 is on record?
A: Its IC50 is greater than 100 µM.

Q: `Cc1ccc(C2(C(=O)N[C@H]3C[C@H](C)CCN(c4nnn[nH]4)C3)CC2)c(O)c1F` (single isomer, unassigned) [74B*] was tested. Which IC50 did it give?
A: Its IC50 is 1 to 10 µM.

Q: Which IC50 does the source give for `C[C@H]1CCN(c2nnn[nH]2)C[C@@H](NC(=O)C2(c3c(F)cc(Cl)cc3F)CC2)C1` (single isomer, unassigned) [72D*] here?
A: The IC50 was 10 to 50 µM.

Q: How did the IC50 turn out when `C[C@H]1C[C@H](NC(=O)C2(c3ccc(C(F)(F)F)cc3)CC2)[C@@H]2CC[C@H]1N2c1nnn[nH]1` [79D*, N-((1S,2S,4S,5R)-4-methyl-8-(1H-tetrazol-5-yl)-8-azabicyclo[3.2.1]octan-2-yl)-1-(4-(trifluoromethyl)phenyl)cyclopropane-1-carboxamide] was run?
A: The IC50 was 10 to 50 µM.

Q: For `C[C@H]1CCN(c2nnn[nH]2)C[C@H](NC(=O)C2(c3ccc(C(F)F)cc3O)CC2)C1` (single isomer, unassigned) [30C*, 1-(4-(difluoromethyl)-2-hydroxyphenyl)-N-(5-methyl-1-(1H-tetrazol-5-yl)azepan-3-yl)cyclopropane-1-carboxamide], which IC50 is on record?
A: The IC50 was greater than 100 µM.

Q: How did the IC50 turn out when `C[C@@H]1CCN(c2nnn[nH]2)C[C@H](NC(=O)C2(c3ccc(C4CCC4)cc3)CC2)C1` (single isomer, unassigned) [8A*, 1-(4-cyclobutylphenyl)-N-(5-methyl-1-(1H-tetrazol-5-yl)azepan-3-yl)cyclopropane-1-carboxamide] was run?
A: Its IC50 is 1 to 10 µM.

Q: For `C[C@@H]1C[C@@H](NC(=O)C2(c3ccc(Cl)cc3)CC2)CN(c2nnn[nH]2)C1` [Compound 46C, 1-(4-chlorophenyl)-N-[(3R,5R)-5-methyl-1-(1H-tetrazol-5-yl)-3-piperidyl]cyclopropanecarboxamide], which IC50 is on record?
A: The IC50 was 10 to 50 µM.

Q: How did the IC50 turn out when `C[C@H]1C[C@H](NC(=O)C2(c3ccc(C4CC4(F)F)cc3)CC2)[C@@H]2CC[C@H]1N2c1nnn[nH]1` (single isomer, unassigned) [37D*] was run?
A: Its IC50 is greater than 100 µM.

Q: With `O=C(N[C@H]1CCCCCN(c2nnn[nH]2)C1)C1(c2ccc(Cl)cc2)CC1` (single isomer, unassigned) [14B*, N-(1-(1H-tetrazol-5-yl)azocan-3-yl)-1-(4-chlorophenyl)cyclopropane-1-carboxamide] as the compound, how does the IC50 read?
A: The IC50 was 10 to 50 µM.

Q: How did the IC50 turn out when `C[C@H]1C[C@@H](NC(=O)C2(c3ccc(Cl)cc3)CC2)[C@@H]2CC[C@H]1N2c1nnn[nH]1` [80C*, 1-(4-chlorophenyl)-N-((1S,2R,4S,5R)-4-methyl-8-(1H-tetrazol-5-yl)-8-azabicyclo[3.2.1]octan-2-yl)cyclopropane-1-carboxamide] was run?
A: Its IC50 is greater than 100 µM.

Q: For `C[C@H]1C[C@@H](NC(=O)C2(c3ccc(C4CC4)cc3)CC2)[C@@H]2CC[C@H]1N2c1nnn[nH]1` [81C*, 1-(4-cyclopropylphenyl)-N-((1S,2R,4S,5R)-4-methyl-8-(1H-tetrazol-5-yl)-8-azabicyclo[3.2.1]octan-2-yl)cyclopropane-1-carboxamide], which IC50 is on record?
A: Its IC50 is 50 to 100 µM.

Q: For `O=C(N[C@H]1CCCN(c2nnn[nH]2)C1)C1(c2ccc(Cl)cc2)CC1` [Compound 10B, (S)—N-(1-(1H-tetrazol-5-yl)piperidin-3-yl)-1-(4-chlorophenyl)cyclopropane-1-carboxamide], which IC50 is on record?
A: The IC50 was greater than 100 µM.

Q: How did the IC50 turn out when `Cc1c(Cl)ccc(C2(C(=O)N[C@H]3C[C@H](C)CCN(c4nnn[nH]4)C3)CC2)c1O` (single isomer, unassigned) [21B*, 1-(4-chloro-2-hydroxy-3-methylphenyl)-N-(5-methyl-1-(1H-tetrazol-5-yl)azepan-3-yl)cyclopropane-1-carboxamide] was run?
A: The IC50 was 1 to 10 µM.

Q: With `C[C@@H]1CCN(c2nnn[nH]2)C[C@@H](NC(=O)C2(c3ccc(C(F)(F)F)cc3F)CC2)C1` (single isomer, unassigned) [68B*] as the compound, how does the IC50 read?
A: The IC50 was 1 to 10 µM.

Q: For `C[C@H]1C[C@@H](NC(=O)C2(c3ccc(C4CC4)c(F)c3O)CC2)[C@@H]2CC[C@H]1N2c1nnn[nH]1` [83C*, 1-(4-cyclopropy1-3-fluoro-2-hydroxyphenyl)-N-((1S,2R,4S,5R)-4-methy1-8-(1H-tetrazol-5-yl)-8-azabicyclo[3.2.1]octan-2-yl)cyclopropane-1-carboxamide], which IC50 is on record?
A: The IC50 was greater than 100 µM.

Q: For `C[C@@H]1CC[C@@H](NC(=O)C2(c3ccc(C(F)(F)F)cc3O)CC2)CN(c2nnn[nH]2)C1` [89C*, 1-(2-hydroxy-4-(trifluoromethyl)phenyl)-N-((3R,6R)-6-methyl-1-(1H-tetrazol-5-yl)azepan-3-yl)cyclopropane-1-carboxamide], which IC50 is on record?
A: Its IC50 is 1 to 10 µM.

Q: How did the IC50 turn out when `C[C@@H]1CCN(c2nnn[nH]2)C[C@@H](NC(=O)C2(c3c(F)cc(Cl)cc3F)CC2)C1` (single isomer, unassigned) [72B*] was run?
A: Its IC50 is 1 to 10 µM.

Q: For `C[C@H]1CCN(c2nnn[nH]2)C[C@@H](NC(=O)C2(c3ccc(Cl)cc3Cl)CC2)C1` (single isomer, unassigned) [55D*], which IC50 is on record?
A: Its IC50 is 50 to 100 µM.

same assay, conditions: read-out: SPA IC50

Q: With `Cn1nnc(-c2cccc(NC(=O)C3(c4ccc(Cl)cc4)CC3)c2)n1` [Comparative Example E2, 1-(4-chlorophenyl)-N-(3-(2-methyl-2H-tetrazol-5-yl)phenyl)cyclopropane-1-carboxamide, reference compound] as the compound, how does the IC50 read?
A: The IC50 was greater than 500 µM.
